In patent US4857507A, “Angiotensinogen analogs” (Abbott Laboratories, priority 1987, dated 1989):

Molecular target: T1, human renal renin (Homo sapiens, UniProt P00797)
T1 construct: human renal renin, free from acid proteolytic activity; from tissue; host or cells: human kidney (from the word 'renal')
T1 sequence (P00797 67-406): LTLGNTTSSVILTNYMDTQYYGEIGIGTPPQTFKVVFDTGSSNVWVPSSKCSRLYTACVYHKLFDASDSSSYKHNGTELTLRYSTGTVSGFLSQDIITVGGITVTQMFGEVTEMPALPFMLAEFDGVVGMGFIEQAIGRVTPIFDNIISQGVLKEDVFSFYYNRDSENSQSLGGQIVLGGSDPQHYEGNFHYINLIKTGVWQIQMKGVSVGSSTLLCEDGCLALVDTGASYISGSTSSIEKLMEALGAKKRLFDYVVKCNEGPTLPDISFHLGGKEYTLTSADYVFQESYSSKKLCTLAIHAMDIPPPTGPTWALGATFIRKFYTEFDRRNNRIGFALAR
Assay: inhibition of human renal renin in vitro, angiotensin I formed measured by radioimmunoassay
Type: biochemical
Conditions: human renal renin with human renin substrate (angiotensinogen), 37° C., pH 6.0
Method: At the end of the incubation, the amount of angiotensin I formed is measured by radioimmunoassay and the molor concentration required to cause 50% inhibition, expressed as the IC50, is calculated.

Boc-Phe-dl-3-pyrazolylalanine Amide of (3S,4S)-1-(3-Methylbutylcarbonylamino)-3-hydroxy-4-amino-5-cyclohexylpentane [Example 58]
IC50: 6 nM
